This passage reports melting point results from a melting point compilation (Tetko et al.; mined from patent text by program, amines drawn as free bases though some values may be those of a salt).

As usually defined, the melting point is the temperature of the solid-liquid transition.

`Cn1cc(S(C)(=O)=O)c(=O)c2ccc(Cl)cc21`: the melting point lay within 241 to 242 °C.

For the compound `COC(=O)c1ccc2[nH]cc(C(C)=O)c2c1`, the melting point was in the range of 235 to 236 °C.

In turn, `COC(Cc1ccc(OCCc2nc(C(C)(C)C)oc2C)c2ccccc12)C(=O)O` (stereo not given) returned a melting point of 141 to 143 °C.

In turn, `C[C@H](NC(=O)Cc1ccccc1F)C(=O)N[C@@H]1C(=O)Nc2ccccc2O[C@@H]1c1ccccc1` registered a melting point of 115 to 135 °C.

In turn, `CC(C)c1nc(CO)c(CO)[nH]1` came in with a melting point of 200 to 201 °C.

In the case of `Cc1nnc2n1-c1ccc(C#CCN3C(=O)C4CC=CCC4C3=O)cc1C(c1ccccc1F)=NC2` (stereo not given), the melting point lay in the range of 259 to 261 °C.

With `COc1ccc(-c2coc(C(N)=O)cc2=O)cc1`, the melting point is 262 to 263 °C.

Compound `CCNC(=O)N1Cc2c(-c3ccc(F)cc3)ncn2-c2ccccc21` came in with a melting point of 196 to 200 °C.

Compound `CS(=O)(=O)Nc1ccc2c(c1)CCN(Cc1ccc3cc(NS(C)(=O)=O)ccc3n1)CC2` had a melting point of 207 to 210 °C.

`O=C1NCCc2c(-c3cccc(Cl)c3)[nH]c3cccc1c23` had a melting point of 147 to 149 °C.

The compound `NC(=O)C1CCc2cc(C(=O)c3ccccc3)c(O)cc21` (stereo not given) displayed a melting point of 205 to 207 °C.

With `CCCCCCCCCCCCCCCCOCCOCCOC(=O)NCc1ccccn1`, the melting point was 57 to 59 °C.

On to `COc1ccc(C(=O)Nc2nc3ccc(N(C)C)cc3c(NCc3ccco3)c2C#N)cc1`, for which the melting point stood at 195 °C.

Compound `COc1ccc(C(=O)Nc2c(Cl)cncc2Cl)cc1OCCCCCCCCCCCc1ccccc1` displayed a melting point of 114 to 115 °C.

Compound `Cc1c(Cc2ccc([N+](=O)[O-])cc2)c(=O)oc2cc(OCc3nnn[nH]3)cc(OCc3nnn[nH]3)c12` registered a melting point of 240 to 244 °C.

As for `COc1cc(/C=C(\C(=O)NCCCCCC(=O)NO)c2ccc(F)cc2)cc(OC)c1`, the melting point lay within 104 to 105 °C.

With `NC(=O)c1cccc(OCCCCC/C=C\c2ccc(Cl)o2)c1`, the melting point lay within 53 to 56 °C.

`O=C1OC2(CC(c3ccccc3)=NO2)c2ccccc21` (stereo not given): the melting point is 103 to 106 °C.

With `COc1cc(-c2nn(C)c(C(F)(F)F)c2Br)c(F)cc1N`, the melting point was in the range of 85 to 86 °C.

Compound `CC1CC(C)CN(Cc2ccc(NC(=O)C#Cc3ccc(-c4ccc(Cl)cc4)cc3)cc2)C1` (stereo not given) gave a melting point of 209 to 214 °C.

The compound `O=C(NCCCCN1CCN(c2csc3cc(F)ccc23)CC1)c1ccc(F)cc1` showed a melting point of 161 to 163 °C.

The compound `CCOC(=O)c1c(C)cc2nc(C)n(-c3ccccc3Cl)c(=O)c2c1C` had a melting point of 131 to 132 °C.

With `CC(=O)OC1CSC(Oc2cccc(-c3c(C)noc3C)c2)C(OC(C)=O)C1OC(C)=O` (stereo not given), the melting point was 167 to 169 °C.

The compound `CC(O)=C(C#N)C(=O)Nc1cccc(Cl)c1` returned a melting point of 184 to 187 °C.

As for `Cc1cc2cc(CN3CCC(C(=O)N4CCCCC4)CC3)cnc2cc1NC(=O)c1ccc(-c2ccc(F)cc2)cc1`, the melting point came to 250 °C.

As to `Cc1nc(-c2ccc(CCC3(O)CN4CCC3CC4)cc2)no1` (stereo not given), the melting point was in the range of 165 to 167 °C.

As to `O=C(C[C@@H](CCCC1CCCCC1)c1nc(CNC2CCC2)no1)NO`, the melting point lay within 82 to 83.9 °C.

`Nc1nc2c(ncn2COCCOCCO)c(=O)[nH]1` had a melting point of 184 to 187 °C.

`N[C@@H](CSCc1ccc(C(=O)O)cc1)C(=O)O`: the melting point was over 260 °C.

Regarding `COCCc1nc(Cl)c(CO)[nH]1`, the melting point lay within 91 to 95 °C.

`COc1cc(C2=C(c3cc4ccccc4[nH]3)C(=O)NC2=O)cc(OC)c1OC` showed a melting point of 252 °C.

`CCCCCCCCCCCCCCOc1ccc(NCc2cccnc2)cc1` yielded a melting point of 75 to 76 °C.

Take `Cn1nc2ccccc2c1C(=O)NC1CCN(CCCc2ccc(F)cc2)CC1`: the melting point lay in the range of 162 to 165 °C.

On to `CCOC(=O)C1=C(C)Nc2nc(N3CCOCC3)nc(N3CCOCC3)c2C1c1ccsc1` (stereo not given), for which the melting point came to 208 °C.

The compound `Cc1cnc(C(=O)O)c(-c2ccc(Cl)c(C(=O)NCC34CC5CC(CC(C5)C3)C4)c2)c1` came in with a melting point of 125 to 130 °C.
